Results from ChEMBL document CHEMBL5303304, “EUbOPEN Chemogenomics Library - IncuCyte” (2023).

Columns and labels:
Assay type in all cases: toxicity, cell-based
[1] = system: U2OS; experiment: Incucyte cell viability with U2OS; settings: human, 10 µM, compound concentration 10 uM
[2] = system: Fibroblast; experiment: Incucyte cell viability with human fibroblast; settings: 10 µM, compound concentration 10 uM
[3] = system: HEK-293T; experiment: Incucyte cell viability with HEK293T; settings: human, 10 µM, compound concentration 10 uM
Also: unitless GR value; below 1 slowed growth and below 0 cell loss.

| Structure (SMILES) | Growth Rate ([1]; 0 h, replicate number 2) | Growth Rate ([1]; 18 h, replicate number 1) | Growth Rate ([2]; 6 h, replicate number 1) | Growth Rate ([3]; 6 h, replicate number 1) | Growth Rate ([3]; 6 h, replicate number 2) | Growth Rate ([3]; 12 h, replicate number 1) | Growth Rate ([3]; 12 h, replicate number 2) | Growth Rate ([3]; 18 h, replicate number 1) | Growth Rate ([3]; 18 h, replicate number 2) | Growth Rate ([3]; 24 h, replicate number 1) | Growth Rate ([3]; 24 h, replicate number 2) | Growth Rate ([1]; 0 h, replicate number 1) | Growth Rate ([2]; 6 h, replicate number 2) | Growth Rate ([2]; 12 h, replicate number 2) | Growth Rate ([2]; 24 h, replicate number 2) | Growth Rate ([1]; 12 h, replicate number 1) | Growth Rate ([1]; 18 h, replicate number 2) | Growth Rate ([1]; 24 h, replicate number 2) | Growth Rate ([2]; 18 h, replicate number 2) | Growth Rate ([2]; 24 h, replicate number 1) | also measured |
| --- | --- | --- | --- | --- | --- | --- | --- | --- | --- | --- | --- | --- | --- | --- | --- | --- | --- | --- | --- | --- | --- |
| CCC(C)(C)NC(=NC#N)Nc1cccnc1 | -0.68 | 1 | -1 | 0.19 | 0.56 | 0.42 | 0.56 | 0.64 | 0.78 | 0.85 | 0.95 |  |  |  |  |  |  |  |  |  | Growth Rate ([1]; 12 h, replicate number 2): 0.85 |
| Cl.O=S(=O)(c1cccc2c(I)cccc12)N1CCCNCC1 |  |  | -1 | -0.39 |  | 0.3 |  | 0.81 |  | 0.89 | 0.88 | -1 | -0.05 | 0.87 | 0.96 |  |  |  |  |  | Growth Rate ([1]; 6 h, replicate number 2): 0.86 |
| CC(Oc1cc(-c2cnn(C3CCNCC3)c2)cnc1N)c1c(Cl)ccc(F)c1Cl (centres undefined) |  | 0.4 |  | -0.85 | -0.51 | -0.78 | -0.35 | -0.49 | -0.18 | -0.28 | -0.11 | -1 | -0.95 | -0.64 | -0.44 | 0.53 | 0.45 | 0.5 | -0.52 | -0.22 | Growth Rate ([1]; 12 h, replicate number 2): 0.65; Growth Rate ([1]; 24 h, replicate number 1): 0.39; Growth Rate ([2]; 12 h, replicate number 1): -0.94; Growth Rate ([2]; 18 h, replicate number 1): -0.67 |
| O=C(Nc1ccc(Cl)nc1)c1ccc(Cl)cc1 | -0.39 |  | -0.32 | 0.33 | 0.16 | 0.71 | 0.63 | 0.59 | 0.53 | 0.63 | 0.65 | -0.12 |  |  |  | 0.95 |  |  |  | 0.54 | Growth Rate ([2]; 0 h, replicate number 1): -0.21; Growth Rate ([2]; 0 h, replicate number 2): -0.9 |
| CC[C@H](C(=O)Nc1ccccc1N1CCCC1)c1ccccc1 |  |  |  | 0.92 | 0.91 |  |  |  |  |  |  |  | -0.59 | 0.33 | 0.9 |  | 0.84 | 0.84 | 0.67 | -0.08 | Growth Rate ([2]; 18 h, replicate number 1): -0.04 |
| Oc1cccc(Nc2ccnc3[nH]c4ccccc4c23)c1 |  | 0.69 | -0.78 | -0.94 | -0.96 | -0.75 | -0.62 | -0.41 | -0.28 | -0.06 | 0 |  | -0.81 | -0.25 | 0.3 |  | 0.7 | 0.63 | 0.18 | 0.48 | Growth Rate ([1]; 12 h, replicate number 2): 0.91; Growth Rate ([1]; 24 h, replicate number 1): 0.73; Growth Rate ([2]; 0 h, replicate number 1): 0.68; Growth Rate ([2]; 12 h, replicate number 1): -0.34 |
| Cc1c(C(=O)NCCCN(C)C)sc2ncnc(Nc3ccc(F)cc3OC(C)CF)c12 (centres undefined) | 0.69 |  | -1 | -0.52 | 0.2 | -0.29 | 0.14 | -0.13 | 0.14 | 0.07 | 0.16 |  |  |  | 0.55 |  |  |  | 0.93 |  |  |
| CC(C)(O)c1ccc2c(c1)ncn2-c1cccc(-c2ccccc2C#N)c1 | 0.83 |  |  | 0.78 | -0.24 | 0.77 | 0.2 | 0.65 | 0.48 | 0.73 | 0.54 | 0.93 | -0.67 | 0.33 |  |  |  |  | 0.52 | 0.28 | Growth Rate ([2]; 0 h, replicate number 1): 0.6; Growth Rate ([2]; 0 h, replicate number 2): -0.48; Growth Rate ([2]; 12 h, replicate number 1): 0.43; Growth Rate ([2]; 18 h, replicate number 1): 0.64 |
| Cc1c(NC(=O)c2cccn(-c3ccc(F)cc3)c2=O)ccc(Oc2ccnc(NC(=O)C3CC3)c2)c1C | -0.46 | 0.85 | 0.52 | 0.59 | 0.27 |  | 0.78 |  | 0.94 |  |  | -0.05 | 0.99 |  |  | 0.92 |  | 0.96 |  |  | Growth Rate ([2]; 0 h, replicate number 2): 0.16 |
| CN1CCN([C@H]2CC[C@@H](n3cc(-c4ccc(Oc5ccccc5)cc4)c4c(N)ncnc43)CC2)CC1 |  | -0.15 | -1 | -0.98 |  | -0.89 | -0.8 | -0.69 | -0.6 | -0.55 | -0.44 | -1 | -0.98 | -0.72 | -0.46 | -0.26 | 0.03 | -0.03 | -0.51 | 0.42 | Growth Rate ([1]; 6 h, replicate number 1): -0.82; Growth Rate ([1]; 6 h, replicate number 2): -0.23; Growth Rate ([1]; 12 h, replicate number 2): 0.01; Growth Rate ([1]; 24 h, replicate number 1): -0.17 |
| CC(C)(C)c1ccc(-c2coc3ccc(-c4cn[nH]c4)nc23)cc1 | -0.87 | 0.67 | -0.96 | 0.67 | 0.37 |  | 0.72 |  | 0.95 |  | 0.84 | 0.77 | -0.95 | -0.62 | -0.11 | 0.97 | 0.81 | 0.63 | -0.24 | 0.94 | Growth Rate ([1]; 24 h, replicate number 1): 0.5; Growth Rate ([2]; 0 h, replicate number 2): 0.44 |
| Cc1ccc(NC(=O)c2ccc3cnccc3c2)cc1C(=O)Nc1cnc(Nc2cccc(NC3CCN(C(=O)/C=C/CN(C)C)CC3)c2)nc1 | -0.97 | 0.33 |  | -0.97 | -0.98 | -0.87 | -0.77 | -0.65 | -0.56 | -0.54 | -0.39 |  | -1 | -0.71 | -0.3 | 0.17 | 0.49 | 0.46 | -0.42 | -0.28 | Growth Rate ([1]; 6 h, replicate number 1): -0.26; Growth Rate ([1]; 6 h, replicate number 2): 0.51; Growth Rate ([1]; 12 h, replicate number 2): 0.68; Growth Rate ([1]; 24 h, replicate number 1): 0.27; Growth Rate ([2]; 0 h, replicate number 1): 0.35; Growth Rate ([2]; 0 h, replicate number 2): -0.14; Growth Rate ([2]; 12 h, replicate number 1): -0.99; Growth Rate ([2]; 18 h, replicate number 1): -0.78 |
| COc1ccc(CCCN2CCC(COC(c3ccccc3)c3ccccc3)CC2)cc1.Cl |  |  |  | -0.53 | -0.09 | -0.23 | 0.28 | -0.02 | 0.26 | 0.24 | 0.31 | 0.33 | -1 | -0.74 | -0.23 |  |  |  | -0.39 | 0.17 | Growth Rate ([2]; 12 h, replicate number 1): -0.98; Growth Rate ([2]; 18 h, replicate number 1): -0.16 |
| Cl.Cl.O=[N+]([O-])c1ccc(CN2CCOCCOCCN(Cc3ccc([N+](=O)[O-])cc3)CCOCC2)cc1 |  | 0.69 |  | -0.5 | -0.29 | 0.04 | 0.2 | 0.13 | 0.39 | 0.2 | 0.52 |  | -0.71 | 0.3 | 0.84 | 0.28 | 0.56 | 0.76 | 0.63 | -0.06 | Growth Rate ([1]; 6 h, replicate number 1): -0.05; Growth Rate ([1]; 6 h, replicate number 2): 0.19; Growth Rate ([1]; 12 h, replicate number 2): 0.21; Growth Rate ([1]; 24 h, replicate number 1): 0.67; Growth Rate ([2]; 0 h, replicate number 1): 0.74; Growth Rate ([2]; 12 h, replicate number 1): -0.95; Growth Rate ([2]; 18 h, replicate number 1): -0.4 |
| O=C(Nc1cccc(C(F)(F)F)c1)c1cc(Cl)ccc1O |  | 0.4 | -0.98 | -0.8 | -0.84 | -0.85 | -0.56 | -0.77 | -0.41 | -0.67 | -0.3 | -0.07 | -0.88 | -0.65 | -0.46 | 0.63 | 0.41 | 0.27 | -0.55 | 0.08 | Growth Rate ([1]; 6 h, replicate number 1): 0.96; Growth Rate ([1]; 6 h, replicate number 2): 0.71; Growth Rate ([1]; 12 h, replicate number 2): 0.59; Growth Rate ([1]; 24 h, replicate number 1): 0.28; Growth Rate ([2]; 18 h, replicate number 1): 0.8 |
